For 26 compounds, efficacy results are on record in the supplement of paper PMC10290057.

Structures can show the parent of a compound that is named as a salt.
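Also: Luminescence-based viability readout, five doses per compound, normalized against on-plate DMSO and empty-well controls, followed by dose-response curve fitting for every drug.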

The subject of the assay is HCT116. In words: efficacy (fitted maximal change in viability relative to DMSO control); higher = less cytotoxic (negative = loss of viability). To be noted: 48 h.
Regarding `O=C(NCC1CCCCN1)c1cc(OCC(F)(F)F)ccc1OCC(F)(F)F` (stereo unspecified) [Flecainide acetate], the efficacy is -24.2%.
To `NC/1=N/C(=O)N/C=C1F` [Flucytosine] belongs -10.7%; to `CC1(C)O[C@@H]2C[C@H]3[C@@H]4C[C@H](F)C/5=C/C(=O)/C=C\[C@]5(C)[C@@]4(F)[C@@H](O)C[C@]3(C)[C@@]2(O1)C(=O)CO` [Fluocinolone acetonide], -10.6%; to `CC(=O)OCC(=O)[C@@]12OC(C)(C)O[C@@H]1C[C@H]3[C@@H]4C[C@H](F)C/5=C/C(=O)/C=C\[C@]5(C)[C@@]4(F)[C@@H](O)C[C@]23C` [Fluocinonide], -12.9%.
To `CCOC(=O)Nc1ccc(NCc2ccc(F)cc2)nc1N` [Flupirtine maleate] belongs 8.9%; to `CC(C(=O)O)c1ccc(-c2ccccc2)c(F)c1` (stereo unspecified) [Flurbiprofen], -9.87%.
Consider `CC(C)C(=O)Nc1ccc([N+](=O)[O-])c(C(F)(F)F)c1` [Flutamide], for which the efficacy is -14.3%.
To `CCC(=O)O[C@@]1([C@H](C)C[C@H]2[C@@H]3C[C@H](F)\C4=C\C(=O)\C=C/[C@]4(C)[C@@]3(F)[C@@H](O)C[C@]12C)C(=O)SCF` [Fluticasone propionate] belongs -11.6%; to `Cc1cn[nH]c1` [Fomepizole], -18.8%.
As for `C[C@]12CCC(=O)C(O)=C1CC[C@@H]1[C@@H]2CC[C@]2(C)C(=O)CC[C@@H]12` [Formestane], the efficacy is 24.5%.
To `CCOP(=O)(OCC)C(C)NC(=O)N(CCCl)N=O` (stereo unspecified) [Fotemustine] belongs 7.5%; to `CNC(=O)c1c(C)oc2cc(Oc3ncnc4cc(OC)c(OC)cc34)ccc12` [Fruquintinib], -11.4%; to `C[C@]12CC[C@@H]3c4ccc(O)cc4C[C@@H](CCCCCCCCC[S+]([O-])CCCC(F)(F)C(F)(F)F)[C@H]3[C@@H]1CC[C@@H]2O` (stereo partly specified) [Fulvestrant], -14.2%.
To `CN[C@@H](C)C(=O)N[C@H](C(=O)N1CCC[C@H]1C(=O)Nc1snnc1-c1ccccc1)C1CCCCC1` [GDC-0152] belongs -13.4%; to `C[C@]1(C(=O)N(CCCC(=O)O)Cc2cccc(Cl)c2)CCN1C(=O)c1csc2ccccc12` [GLPG-0974], -21.2%; to `CC(C)C[C@H](CC(=O)O)C(=O)N[C@@H](Cc1c[nH]c2ccccc12)C(=O)N[C@@H](C)c1ccccc1` [GM-1489], 10.9%.
To `Nc1ncc(C(=O)NC2CN(C(=O)C3CC3)C2)c2ccc(-c3cccc(F)c3)nc12` [GNE-495] belongs -23.5%.
Consider `CC(=O)N1CCN(c2ccc(NC(=O)Cc3cnc(-c4ccnc(F)c4)c(C)c3)nc2)CC1` [GNF-6231], for which the efficacy was -22.2%.
As for `C[C@H](NC(=O)Cc1cc(F)cc(F)c1)C(=O)N[C@H](C(=O)OC(C)(C)C)c1ccccc1` [GSI-IX], the figure is 26%; as for `CCN(C(=O)c1ccccc1OC)c1cc2c(cc1N1CCNC[C@H]1C)n(C)c(=O)n2C` [GSK9311], -8.64%.
With `CC[C@H](C)[N]1C=C(C)C2=C1C=C(C=C2C(=O)NC\C3=C(C)\C=C(\C)NC3=O)C4=CC=C(N=C4)N5CCNCC5` [GSK-126], the efficacy is -125%.
To `CN1C(=O)[C@@H](NC(=O)c2cc(Cc3ccccc3)on2)COc2ccccc21` [GSK-481] belongs -10.3%.
With `CC(C)(C)[S+](=O)([O-])c1ccc2nccc(Nc3n[nH]c4ccc(F)cc34)c2c1` [GSK-583], the efficacy is -39.1%.
To `COc1c(C)cc(NC(=O)c2nn(Cc3ccc(F)cc3)c3c2CN(C(=O)c2ccc[nH]2)C[C@]3(C)C(N)=O)cc1C` [GSK-864] belongs -35.1%.
For the compound `CC(C)[S+](=O)([O-])c1ccc2nccc(Nc3ccc4scnc4c3)c2c1` [GSK-872], the efficacy was -37.8%.
As for `CC(C)(C)C(=O)N1\N=C/C[C@H]1C2=CC=CC=C2` [GSK-963], the figure is -9.61%.
